# Source: patent publication US20200390753A1, “COMBINATION THERAPY USING ENANTIOPURE, OXY-SUBSTITUTED, DEUTERIUM-ENRICHED 5-(BENZYL)-5-DEUTERO-THIAZOLIDINE-2,4-DIONES FOR TREATMENT OF MEDICAL DISORDERS” (priority 2015, published 2020)
# Where two headings read alike, the source gives them in different places.
# Assays:
# [1] = for k RS: enantiomerization rate constant h-R-pio to h-S-pio / k SR: enantiomerization rate constant h-S-pio to h-R-pio: C57BL/6, mouse, 5 M (sic)
# [2] = for k RS: enantiomerization rate constant h-R-pio to h-S-pio / k SR: enantiomerization rate constant h-S-pio to h-R-pio: 5 M (sic)
# C2C12 cells = experiment: Mitochondrial respiration (mitochondrial stress test, maximal respiration) in C2C12 cells; type: cell-based; conditions: 30 µM for 15, 30, or 90 min, vs vehicle-treated cells; 10 mM sodium pyruvate
# Excerpt: […]. […] […].
# [3] = Body weight gain in male C57BL/6J mice on a standard diet; type: in vivo; conditions: twice daily oral gavage 11 days; overall daily dose h-rac-pio 30 mg/kg, d-S-pio 15 mg/kg, d-R-pio 15 mg/kg
# Experimental: Male C57BL/6J mice (about 28 g body weight) were acclimated singly-housed for one week to a reverse light/dark cycle with free access to water and standard maintenance diet. Animals were then handled daily for one week followed by another 7 days of twice daily dosing with vehicle (0.5% methylcellulose in water) by oral gavage. […] Body weights were measured twice daily, prior to each dosing, to adjust individual dosing volumes to actual body weights.
# db/db mice = experiment: db/db mouse model of Type II diabetes, 10-day daily oral dosing; type: in vivo; conditions: oral daily 10 days, h-rac-pio 30 mg/kg; for effect on non-essential fatty acids (decrease compared with h-rac-pio) / effect on non-fasted blood glucose / effect on adiponectin: d-S-pio 20 mg/kg; for effect on non-essential fatty acids (decrease compared with h-rac-pio) / effect on non-fasted blood glucose / decrease of cytokines IL-1p, IL-6, and TNF-α / decrease of serum amyloid A: d-R-pio 20 mg/kg
# Experimental: Quantitative results were analyzed by statistical methods using, as appropriate, one- or two-way ANOVA or Kruskal-Wallis tests for differences followed by Sidak's, Dunnett's, or Dunn's post-test to determine differences vs. vehicle-treated control animals. All graphs were generated with GraphPad Prism version 6.0.2 (GraphPad Software, Inc., La Jolla, Calif.).
# [4] = biological target: T1, human recombinant monoamine oxidase B (Homo sapiens, UniProt P27338); experiment: Monoamine oxidase B (MAO-B) inhibition, luminescence; type: biochemical
# T1 sequence (P27338 1-520): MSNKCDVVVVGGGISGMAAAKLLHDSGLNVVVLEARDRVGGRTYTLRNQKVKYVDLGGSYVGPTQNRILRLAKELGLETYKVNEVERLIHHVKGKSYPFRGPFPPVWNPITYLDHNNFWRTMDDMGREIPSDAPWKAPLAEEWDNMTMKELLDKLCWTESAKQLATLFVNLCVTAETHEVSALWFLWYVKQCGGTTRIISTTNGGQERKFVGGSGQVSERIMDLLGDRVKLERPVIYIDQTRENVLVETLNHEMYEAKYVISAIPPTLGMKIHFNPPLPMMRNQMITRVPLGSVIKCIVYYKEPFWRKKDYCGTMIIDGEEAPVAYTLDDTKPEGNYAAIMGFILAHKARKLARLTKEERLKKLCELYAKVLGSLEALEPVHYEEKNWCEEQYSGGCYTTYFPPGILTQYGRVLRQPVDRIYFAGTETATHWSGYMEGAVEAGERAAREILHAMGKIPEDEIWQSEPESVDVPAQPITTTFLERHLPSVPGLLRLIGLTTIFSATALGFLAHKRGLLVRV
# Experimental: The mixtures were incubated at 22° C. for 5 min. Substrate (D-luciferin derivative) was added, and then the mixture was incubated at 37° C. for 60 min. The reaction was stopped by addition of the detection reagent containing luciferase. Luminescence was read after standing for 60 min at room temperature.
# Results were expressed as a percentage of the luminescence of the control (enzyme+substrate). IC50 values were obtained by fitting experimental data (mean % luminescence as function of concentration) to the Hill equation with variable slope using non-linear regression analysis.
SMILES,k RS: enantiomerization rate constant h-R-pio to h-S-pio [1] [h⁻¹],k SR: enantiomerization rate constant h-S-pio to h-R-pio [1] [h⁻¹],k RS: enantiomerization rate constant h-R-pio to h-S-pio ([2]; human) [h⁻¹],k SR: enantiomerization rate constant h-S-pio to h-R-pio ([2]; human) [h⁻¹],effect on maximal respiration (oxygen consumption rate) (C2C12 cells),"percent body weight difference versus day 1, compared to vehicle [3]",effect on non-essential fatty acids (decrease compared with h-rac-pio) (db/db mice),effect on non-fasted blood glucose (db/db mice),effect on adiponectin (db/db mice; vs vehicle),"decrease of cytokines IL-1p, IL-6, and TNF-α (db/db mice; vs vehicle)",decrease of serum amyloid A (db/db mice; vs vehicle),also measured
"[2H][C@@]1(Cc2ccc(OCCc3ccc(CC)cn3)cc2)SC(=O)NC1=O [d-S-pio, (S)-5-({p-[2-(5-Ethyl-2-pyridyl)ethoxy]phenyl}methyl)-(5-^2H)-1,3-thiazolidine-2,4-dione]",–,–,–,–,no significant measurable effect,statistically significant increase,a similar trend was observed,decreased non-fasted blood glucose to approximately the same extent as h-rac-pio,significantly increased,–,–,half-life of d-S-pio compared with h-S-pio ([2]; plasma): approximately the same as the half-life for h-S-pio
"CCc1ccc(CCOc2ccc(CC3SC(=O)NC3=O)cc2)nc1 (racemic) [h-rac-pio, rac-5-({p-[2-(5-Ethyl-2-pyridyl)ethoxy]phenyl}methyl)-1,3-thiazolidine-2,4-dione, reference compound]",–,–,–,–,inhibited maximal respiration,statistically significant increase,–,–,significantly increased,trending,statistically significant,effect on insulin (db/db mice; vs vehicle): significantly decreased
"[2H][C@]1(Cc2ccc(OCCc3ccc(CC)cn3)cc2)SC(=O)NC1=O [d-R-pio, (R)-5-({p-[2-(5-Ethyl-2-pyridyl)ethoxy]phenyl}methyl)-(5-^2H)-1,3-thiazolidine-2,4-dione]",–,–,–,–,inhibited maximal respiration,did not increase,a similar trend was observed,decreased non-fasted blood glucose to approximately the same extent as h-rac-pio,–,trending,statistically significant,difference in inhibition efficacy between d-R-pio and d-S-pio [4]: greater than 5 fold
[2H]C1(Cc2ccc(OCCc3ccc(CC)cn3)cc2)SC(=O)NC1=O (racemic) [d-rac-pio],–,–,–,–,–,–,–,–,–,–,–,"t1/2 of d-S-pio (k=kDSR+kDSS) ([1]; mouse, plasma): 36 min; t1/2 of h-R-pio (RS*) from averaged kRS ([1]; mouse, plasma): 54 min; t1/2 of h-S-pio (SR*) from averaged kSR ([1]; mouse, plasma): 45 min; t1/2 of h-R-pio (RS*) from averaged kRS ([2]; human, plasma): 1.6 h; t1/2 of h-S-pio (SR*) from averaged kSR ([2]; human, plasma): 1.6 h"

# Now from value to compound, other results behind:
k RS: enantiomerization rate constant h-R-pio to h-S-pio [1] [h⁻¹],k SR: enantiomerization rate constant h-S-pio to h-R-pio [1] [h⁻¹],k RS: enantiomerization rate constant h-R-pio to h-S-pio ([2]; human) [h⁻¹],k SR: enantiomerization rate constant h-S-pio to h-R-pio ([2]; human) [h⁻¹],SMILES,effect on maximal respiration (oxygen consumption rate) (C2C12 cells),"percent body weight difference versus day 1, compared to vehicle [3]",effect on non-essential fatty acids (decrease compared with h-rac-pio) (db/db mice),effect on non-fasted blood glucose (db/db mice),effect on adiponectin (db/db mice; vs vehicle),"decrease of cytokines IL-1p, IL-6, and TNF-α (db/db mice; vs vehicle)",decrease of serum amyloid A (db/db mice; vs vehicle),also measured
0.792,0.979,0.434,0.427,CCc1ccc(CCOc2ccc(C[C@@H]3SC(=O)NC3=O)cc2)nc1 [h-S-pio],–,–,–,–,–,–,–,–
0.694,0.867,0.447,0.439,CCc1ccc(CCOc2ccc(C[C@H]3SC(=O)NC3=O)cc2)nc1 [h-R-pio],–,–,–,–,–,–,–,–
